Results from patent US9518026B2, “5-aminopyrazole-4-carboxamide inhibitors of CDPK1 from T. gondii and C. parvum” (UNIVERSITY OF WASHINGTON THROUGH ITS CENTER FOR …, priority 2013, dated 2016).
Read-outs that look alike come from different tables or passages of the source.

Experiments:
[1] = Cytotoxicity against CRL8155 cell line; type: cell-based; conditions: human, CRL8155 cells (lymphoblast, spleen), read-out: Cytotoxicity (CRL8155) EC50
Src = Src (Homo sapiens (Human), UniProt P12931); assay: biochemical
Sequence of Src (P12931 270-523): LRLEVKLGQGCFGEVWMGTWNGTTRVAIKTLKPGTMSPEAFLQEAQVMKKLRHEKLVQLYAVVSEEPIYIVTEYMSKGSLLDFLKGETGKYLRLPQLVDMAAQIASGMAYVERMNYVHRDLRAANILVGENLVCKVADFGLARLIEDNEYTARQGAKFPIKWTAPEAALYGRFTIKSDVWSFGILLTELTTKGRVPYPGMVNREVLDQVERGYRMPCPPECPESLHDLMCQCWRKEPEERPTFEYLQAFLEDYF

CpCDPK1 = CpCDPK1 (Cryptosporidium parvum (strain Iowa II), UniProt A3FQ16); assay: biochemical; conditions: Table 1; KinaseGlo, Syntide 2 peptide substrate; read-out: CpCDPK1 IC50
Sequence of CpCDPK1 (A3FQ16 1-538): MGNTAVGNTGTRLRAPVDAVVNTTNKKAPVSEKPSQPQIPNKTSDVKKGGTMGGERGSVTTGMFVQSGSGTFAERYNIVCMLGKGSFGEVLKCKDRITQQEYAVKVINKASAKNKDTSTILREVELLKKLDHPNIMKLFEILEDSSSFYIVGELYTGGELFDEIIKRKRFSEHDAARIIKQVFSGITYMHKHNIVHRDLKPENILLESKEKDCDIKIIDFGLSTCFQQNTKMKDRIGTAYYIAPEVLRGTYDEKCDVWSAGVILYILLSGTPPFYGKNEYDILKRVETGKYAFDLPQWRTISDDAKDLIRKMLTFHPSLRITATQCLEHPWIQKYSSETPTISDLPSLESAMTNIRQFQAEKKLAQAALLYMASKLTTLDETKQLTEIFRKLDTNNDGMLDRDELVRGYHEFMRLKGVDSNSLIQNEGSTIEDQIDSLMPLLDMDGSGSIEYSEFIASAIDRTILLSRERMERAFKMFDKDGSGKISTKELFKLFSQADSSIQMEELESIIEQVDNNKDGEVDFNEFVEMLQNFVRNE

TgCDPK1 = TgCDPK1 (Toxoplasma gondii, UniProt Q9BJF5); assay: biochemical; conditions: Table 1; KinaseGlo, Syntide 2 peptide substrate; read-out: TgCDPK1 IC50
Sequence of TgCDPK1 (Q9BJF5 1-507): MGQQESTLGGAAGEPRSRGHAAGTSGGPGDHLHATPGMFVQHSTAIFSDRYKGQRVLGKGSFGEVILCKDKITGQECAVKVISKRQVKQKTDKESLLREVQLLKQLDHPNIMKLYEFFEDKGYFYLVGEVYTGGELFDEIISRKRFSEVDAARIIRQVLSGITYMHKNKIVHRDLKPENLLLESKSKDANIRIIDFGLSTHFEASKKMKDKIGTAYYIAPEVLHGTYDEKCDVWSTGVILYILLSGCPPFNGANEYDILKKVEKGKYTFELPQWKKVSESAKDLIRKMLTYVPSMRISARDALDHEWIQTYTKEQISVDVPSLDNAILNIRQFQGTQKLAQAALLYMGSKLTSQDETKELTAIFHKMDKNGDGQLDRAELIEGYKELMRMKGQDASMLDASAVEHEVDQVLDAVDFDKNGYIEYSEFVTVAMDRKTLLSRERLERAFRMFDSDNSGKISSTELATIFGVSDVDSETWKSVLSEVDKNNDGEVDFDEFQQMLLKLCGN

Structure (SMILES) | IC50 (CpCDPK1) [nM] | IC50 (TgCDPK1) [nM] | further results
CC(C)(C)Cn1nc(-c2ccc3ccccc3c2)c(C(N)=O)c1N [Compound 19, 5-amino-3-(naphthalen-2-yl)-1-neopentyl-1H-pyrazole-4-carboxamide] | – | – | EC50 ([1]; Table 2): > 40 µM
CC(C)(C)n1nc(-c2cnc3cc(F)ccc3c2)c(C(N)=O)c1N [Compound 1545, 5-amino-1-tert-butyl-3-(7-fluoroquinolin-3-yl)-1H-pyrazole-4-carboxamide] | – | – | IC50 (Src; Src IC50 (μM), Table 3): > 30 µM; EC50 ([1]; Table 3): > 40 µM
CC(C)Oc1ccc2cc(-c3nn(C(C)(C)C)c(N)c3C(N)=O)cnc2c1 [Compound 1569, 5-amino-1-(tert-butyl)-3-(7-isopropoxyquinolin-3-yl)-1H-pyrazole-4-carboxamide] | 5 | – | EC50 ([1]; Table 3): > 40 µM
CCOc1ccc2cc(-c3nn(CCOC)c(N)c3C(N)=O)cnc2c1 [Compound 1594, 5-amino-3-(7-ethoxyquinolin-3-yl)-1-(2-methoxyethyl)-1H-pyrazole-4-carboxamide] | 172 | 321 | –
CCOc1ccc2cc(-c3nn(CCOC)c(N)c3C(=O)NCCOC)cnc2c1 [Compound 1595, 5-amino-3-(7-ethoxyquinolin-3-yl)-N,1-bis(2-methoxyethyl)-1H-pyrazole-4-carboxamide] | 398 | 723 | –
CCOc1ccc2cc(-c3nn(CC(C)(C)CO)c(N)c3C(N)=O)cnc2c1 [Compound 1596, 5-amino-3-(7-ethoxyquinolin-3-yl)-1-(3-hydroxy-2,2-dimethylpropyl)-1H-pyrazole-4-carboxamide] | – | – | IC50 (Src; Src IC50 (μM), Table 3): > 10 µM; EC50 ([1]; Table 3): > 40 µM
CCOc1ccc2cc(-c3nn(C(C)(C)C)c(N)c3C(N)=O)ccc2n1 [Compound 1597, 5-amino-1-(tert-butyl)-3-(2-ethoxyquinolin-6-yl)-1H-pyrazole-4-carboxamide] | 3 | – | IC50 (Src; Src IC50 (μM), Table 3): > 10 µM; EC50 ([1]; Table 3): > 40 µM
CCOc1ccc2cc(-c3nn(C4CCCCCC4)c(N)c3C(N)=O)cnc2c1 [Compound 1604, 5-amino-1-cycloheptyl-3-(7-ethoxyquinolin-3-yl)-1H-pyrazole-4-carboxamide] | 2 | – | IC50 (Src; Src IC50 (μM), Table 3): > 10 µM; EC50 ([1]; Table 3): > 40 µM
CCOc1ccc2cc(-c3nn(C4CCCC4)c(N)c3C(N)=O)cnc2c1 [Compound 1605, 5-amino-1-cyclopentyl-3-(7-ethoxyquinolin-3-yl)-1H-pyrazole-4-carboxamide] | 4 | – | IC50 (Src; Src IC50 (μM), Table 3): > 10 µM; EC50 ([1]; Table 3): > 40 µM
CCOc1ccc2cc(-c3nn(C(C(C)C)C(C)C)c(N)c3C(N)=O)cnc2c1 [Compound 1607, 5-amino-1-(2,4-dimethylpentan-3-yl)-3-(7-ethoxyquinolin-3-yl)-1H-pyrazole-4-carboxamide] | 20 | 99 | –
CCOc1ccc2cc(-c3nn4c(c3C(N)=O)NC(=O)C4)cnc2c1 [Compound 1609, 6-(7-ethoxyquinolin-3-yl)-2-oxo-2,3-dihydro-1H-imidazo[1,2-b]pyrazole-7-carboxamide] | 577 | 1430 | –
CCOc1ccc2cc(-c3nn(C(C)C(C)O)c(N)c3C(N)=O)cnc2c1 (stereo not drawn) [Compound 1611, 5-amino-3-(7-ethoxyquinolin-3-yl)-1-(3-hydroxybutan-2-yl)-1H-pyrazole-4-carboxamide] | 6 | 19 | –
CCOc1ccc2cc(-c3nn(C4CCOC4)c(N)c3C(N)=O)cnc2c1 (stereo not drawn) [Compound 1612, 5-amino-3-(7-ethoxyquinolin-3-yl)-1-(tetrahydrofuran-3-yl)-1H-pyrazole-4-carboxamide] | 3 | 10 | –
CCOc1ccc2cc(-c3nn(CC(C)(C)CO)c(N)c3C(N)=O)ccc2n1 [Compound 1622, 5-amino-3-(2-ethoxyquinolin-6-yl)-1-(3-hydroxy-2,2-dimethylpropyl)-1H-pyrazole-4-carboxamide] | – | – | EC50 ([1]; Table 3): > 40 µM
CCOc1ccc2cc(-c3nn(C(C)C(C)(C)O)c(N)c3C(N)=O)cnc2c1 (stereo not drawn) [Compound 1626, 5-amino-3-(7-ethoxyquinolin-3-yl)-1-(3-hydroxy-3-methylbutan-2-yl)-1H-pyrazole-4-carboxamide] | 13 | 30 | –
CCOc1ccc2cc(-c3nn(C(C)CO)c(N)c3C(N)=O)cnc2c1 (stereo not drawn) [Compound 1627, 5-amino-3-(7-ethoxyquinolin-3-yl)-1-(1-hydroxypropan-2-yl)-1H-pyrazole-4-carboxamide] | 9 | 20 | –
CCOc1ccc2cc(-c3nn(C(CO)CO)c(N)c3C(N)=O)cnc2c1 [Compound 1629, 5-amino-1-(1,3-dihydroxypropan-2-yl)-3-(7-ethoxyquinolin-3-yl)-1H-pyrazole-4-carboxamide] | 52 | 120 | –
CC(C)(C)n1nc(-c2cnc3cc(OC4CCC4)ccc3c2)c(C(N)=O)c1N [Compound 1630, 5-amino-1-(tert-butyl)-3-(7-cyclobutoxyquinolin-3-yl)-1H-pyrazole-4-carboxamide] | 4 | 3 | –
CCOc1ccc2cc(-c3nn(C(C)C4CC4)c(N)c3C(N)=O)cnc2c1 (stereo not drawn) [Compound 1631, 5-amino-1-(1-cyclopropylethyl)-3-(7-ethoxyquinolin-3-yl)-1H-pyrazole-4-carboxamide] | 5 | 10 | –
CCOc1ccc2cc(-c3nn(C4CCCCCC4)c(N)c3C(N)=O)ccc2n1 [Compound 1632, 5-amino-1-cycloheptyl-3-(2-ethoxyquinolin-6-yl)-1H-pyrazole-4-carboxamide] | 6 | 7 | –
CCOc1ccc2cc(-c3nn(C(C)C(C)(C)O)c(N)c3C(N)=O)ccc2n1 (stereo not drawn) [Compound 1636, 5-amino-3-(2-ethoxyquinolin-6-yl)-1-(3-hydroxy-3-methylbutan-2-yl)-1H-pyrazole-4-carboxamide] | 18 | 58 | –
CCOc1ccc2cc(-c3nn(C(C)C(C)(C)CO)c(N)c3C(N)=O)cnc2c1 (stereo not drawn) [Compound 1637, 5-amino-3-(7-ethoxyquinolin-3-yl)-1-(4-hydroxy-3,3-dimethylbutan-2-yl)-1H-pyrazole-4-carboxamide] | 4 | 12 | –
CCOc1ccc2cc(-c3nn(C4(C)CCCCC4)c(N)c3C(N)=O)cnc2c1 [Compound 1640, 5-amino-3-(7-ethoxyquinolin-3-yl)-1-(1-methylcyclohexyl)-1H-pyrazole-4-carboxamide] | 6 | 9 | –
CCOc1ccc2cc(-c3nn(CC(C)(C)O)c(N)c3C(N)=O)cnc2c1 [Compound 1641, 5-amino-3-(7-ethoxyquinolin-3-yl)-1-(2-hydroxy-2-methylpropyl)-1H-pyrazole-4-carboxamide] | 21 | 41 | –
CCOc1ccc2cc(-c3nn(C4CCC4)c(N)c3C(N)=O)cnc2c1 [Compound 1652] | – | – | IC50 (Src): > 10 µM; EC50 ([1]; Table 3): > 40 µM
CCOc1ccc2ncc(-c3nn(C(C)(C)C)c(N)c3C(N)=O)cc2c1 [Compound 1654, 5-amino-1-(tert-butyl)-3-(6-ethoxyquinolin-3-yl)-1H-pyrazole-4-carboxamide] | > 2000 | > 2000 | –
CCOc1ccc2ncc(-c3nn(C4CCCCC4)c(N)c3C(N)=O)cc2c1 [Compound 1655, 5-amino-1-cyclohexyl-3-(6-ethoxyquinolin-3-yl)-1H-pyrazole-4-carboxamide] | > 2000 | > 2000 | –
CCOc1ccc2cc(-c3nn(C(C)C)c(N)c3C(N)=O)ccc2n1 [Compound 1661, 5-amino-3-(2-ethoxyquinolin-6-yl)-1-isopropyl-1H-pyrazole-4-carboxamide] | 2 | 5 | –
